Experiments:
Assay type in all cases: cell-based, mouse
[1] = tested on: α7 integrin (LacZ reporter in α7βgal+/− myoblasts); assay: Myoblast α7+/LacZ integrin FDG assay (Burkin assay in myoblasts, 96-well); details: for Burkin Assay in Myoblasts, signal relative to DMSO: α7+/LacZ myoblasts, 96-well
[2] = tested on: α7 integrin (LacZ reporter in α7+/LacZ myotubes); assay: Myotube α7 integrin FDG assay (Burkin assay in myotubes, 96-well); details: for Burkin Assay in Myotubes, value relative to DMSO: SU9516 analogs, 96-well, N=3-6
[3] = tested on: β-galactosidase in CMV-LacZ C2C12 myoblasts; assay: CMV-LacZ secondary screen in C2C12 myoblasts (β-Gal stabilizing assay); details: for CMV-LACZ in Myoblasts (β-galactosidase activity relative to DMSO): CMV-LacZ C2C12 myoblasts; for CMV-LACZ in Myoblasts, value relative to DMSO: SU9516 analogs, C2C12 CMV-LacZ, N=2
In short: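 Stable CMV-LacZ C2C12 clone; six-point curve 0.5–40 μM; duplicates.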

[4] = tested on: β-galactosidase in CMV-LacZ C2C12 myotubes; assay: CMV-LacZ secondary screen in C2C12 myotubes (β-Gal stabilizing assay); details: for CMV-LACZ in Myotubes, signal relative to DMSO: C2C12 CMV-LacZ myotubes, fold relative to DMSO; for CMV-LACZ in Myotubes, value relative to DMSO: SU9516 analogs, C2C12 CMV-LacZ, N=2
In short: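 A secondary screen identifies compounds that stabilize β-gal independently of the native promoter, using CMV-LacZ C2C12 cells. Curves span 0.5–40 μM at six levels, in duplicate.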

[5] = Mus musculus, Myoblast, 48 h, read-out: Burkin Assay in Myoblasts, value relative to DMSO

In the case of `Cl.O=C1C2CCCN2C(=O)N1CCCN1CCN(c2cccc(Br)c2)CC1` (stereo not drawn) [MLS001180929-01], the “Burkin Assay in Myoblasts, signal relative to DMSO” value ([1]; 0.5 uM) is reported as 1.077, the “Burkin Assay in Myoblasts, signal relative to DMSO” value ([1]; 1 uM) is reported as 1.0555 and the “Burkin Assay in Myoblasts, signal relative to DMSO” value ([1]; 5 uM) is reported as 1.05. The “Burkin Assay in Myoblasts, signal relative to DMSO” value ([1]; 10 uM) was 1.05, the “Burkin Assay in Myoblasts, signal relative to DMSO” value ([1]; 20 uM) was 1.102 and the “Burkin Assay in Myoblasts, signal relative to DMSO” value ([1]; 40 uM) was 1.1941. For the same molecule, the “Burkin Assay in Myotubes, α7 integrin LacZ reporter signal relative to DMSO” value ([2]; 0.5 uM) was 0.899, the “Burkin Assay in Myotubes, α7 integrin LacZ reporter signal relative to DMSO” value ([2]; 1 uM) was 0.9256 and the “Burkin Assay in Myotubes, α7 integrin LacZ reporter signal relative to DMSO” value ([2]; 5 uM) was 0.9643. The “Burkin Assay in Myotubes, α7 integrin LacZ reporter signal relative to DMSO” value ([2]; 10 uM) was 1.03, the “Burkin Assay in Myotubes, α7 integrin LacZ reporter signal relative to DMSO” value ([2]; 20 uM) was 0.8659 and the “Burkin Assay in Myotubes, α7 integrin LacZ reporter signal relative to DMSO” value ([2]; 40 uM) was 1.135. The “CMV-LACZ in Myoblasts (β-galactosidase activity relative to DMSO)” value ([3]; 0.5 uM) was 0.8571, the “CMV-LACZ in Myoblasts (β-galactosidase activity relative to DMSO)” value ([3]; 1 uM) was 0.9288 and the “CMV-LACZ in Myoblasts (β-galactosidase activity relative to DMSO)” value ([3]; 5 uM) was 0.8251. For the same molecule, the “CMV-LACZ in Myoblasts (β-galactosidase activity relative to DMSO)” value ([3]; 10 uM) was 0.8753, the “CMV-LACZ in Myoblasts (β-galactosidase activity relative to DMSO)” value ([3]; 20 uM) was 0.9811 and the “CMV-LACZ in Myoblasts (β-galactosidase activity relative to DMSO)” value ([3]; 40 uM) was 0.6163. The “CMV-LACZ in Myotubes, signal relative to DMSO” value ([4]; 0.5 uM) was 0.8848, the “CMV-LACZ in Myotubes, signal relative to DMSO” value ([4]; 1 uM) was 0.7876 and the “CMV-LACZ in Myotubes, signal relative to DMSO” value ([4]; 5 uM) was 1.0533. The “CMV-LACZ in Myotubes, signal relative to DMSO” value ([4]; 10 uM) was 1.0084, the “CMV-LACZ in Myotubes, signal relative to DMSO” value ([4]; 20 uM) was 1.1347 and the “CMV-LACZ in Myotubes, signal relative to DMSO” value ([4]; 40 uM) was 1.0274.

For `O=c1[nH]c2ccccc2nc1-c1c[nH]c2ccccc12` [MLS001181936-01], the “Burkin Assay in Myoblasts, signal relative to DMSO” value ([1]; 0.5 uM) was 0.8443, the “Burkin Assay in Myoblasts, signal relative to DMSO” value ([1]; 1 uM) was 0.7562 and the “Burkin Assay in Myoblasts, signal relative to DMSO” value ([1]; 5 uM) was 0.8573. For the same molecule, the “Burkin Assay in Myoblasts, signal relative to DMSO” value ([1]; 10 uM) was 0.8219, the “Burkin Assay in Myoblasts, signal relative to DMSO” value ([1]; 20 uM) was 0.51 and the “Burkin Assay in Myoblasts, signal relative to DMSO” value ([1]; 40 uM) was 0.3285. The “Burkin Assay in Myotubes, α7 integrin LacZ reporter signal relative to DMSO” value ([2]; 0.5 uM) was 0.9197, the “Burkin Assay in Myotubes, α7 integrin LacZ reporter signal relative to DMSO” value ([2]; 1 uM) was 0.7633 and the “Burkin Assay in Myotubes, α7 integrin LacZ reporter signal relative to DMSO” value ([2]; 5 uM) was 0.9856. The “Burkin Assay in Myotubes, α7 integrin LacZ reporter signal relative to DMSO” value ([2]; 10 uM) was 1.024, the “Burkin Assay in Myotubes, α7 integrin LacZ reporter signal relative to DMSO” value ([2]; 20 uM) was 0.5868 and the “Burkin Assay in Myotubes, α7 integrin LacZ reporter signal relative to DMSO” value ([2]; 40 uM) was 0.7387. For the same molecule, the “CMV-LACZ in Myoblasts (β-galactosidase activity relative to DMSO)” value ([3]; 0.5 uM) was 0.8487, the “CMV-LACZ in Myoblasts (β-galactosidase activity relative to DMSO)” value ([3]; 1 uM) was 0.9273 and the “CMV-LACZ in Myoblasts (β-galactosidase activity relative to DMSO)” value ([3]; 5 uM) was 0.7292. The “CMV-LACZ in Myoblasts (β-galactosidase activity relative to DMSO)” value ([3]; 10 uM) was 0.8296, the “CMV-LACZ in Myoblasts (β-galactosidase activity relative to DMSO)” value ([3]; 20 uM) was 0.7863 and the “CMV-LACZ in Myoblasts (β-galactosidase activity relative to DMSO)” value ([3]; 40 uM) was 0.6130. The “CMV-LACZ in Myotubes, signal relative to DMSO” value ([4]; 0.5 uM) was 1.0705, the “CMV-LACZ in Myotubes, signal relative to DMSO” value ([4]; 1 uM) was 0.9886 and the “CMV-LACZ in Myotubes, signal relative to DMSO” value ([4]; 5 uM) was 0.9246. The “CMV-LACZ in Myotubes, signal relative to DMSO” value ([4]; 10 uM) was 1.0274, the “CMV-LACZ in Myotubes, signal relative to DMSO” value ([4]; 20 uM) was 0.9020 and the “CMV-LACZ in Myotubes, signal relative to DMSO” value ([4]; 40 uM) was 1.0280.

In the case of `O=C1Nc2ccccc2/C1=C/c1ccnc2ccccc12` [MLS001182278-01], the fold induction at 0.5 µM [1, 5] is reported as 1.21, the fold induction at 1 µM [1, 5] is reported as 1.07 and the fold induction at 5 µM [1, 5] is reported as 1.06. For the same molecule, the fold induction at 10 µM [1, 5] was 1.17, the fold induction at 20 µM [1, 5] was 0.766 and the fold induction at 40 µM [1, 5] was 0.842. The “Burkin Assay in Myotubes, value relative to DMSO” value ([2]; 0.5 uM) was 1.1969, the “Burkin Assay in Myotubes, value relative to DMSO” value ([2]; 1 uM) was 1.118 and the “Burkin Assay in Myotubes, value relative to DMSO” value ([2]; 5 uM) was 1.402. For the same molecule, the “Burkin Assay in Myotubes, value relative to DMSO” value ([2]; 10 uM) was 1.412, the “Burkin Assay in Myotubes, value relative to DMSO” value ([2]; 20 uM) was 0.5653 and the “Burkin Assay in Myotubes, value relative to DMSO” value ([2]; 40 uM) was 0.6488. For the same molecule, the “CMV-LACZ in Myoblasts, value relative to DMSO” value ([3]; 0.5 uM) was 0.7466, the “CMV-LACZ in Myoblasts, value relative to DMSO” value ([3]; 1 uM) was 0.9491 and the “CMV-LACZ in Myoblasts, value relative to DMSO” value ([3]; 5 uM) was 0.9823. For the same molecule, the “CMV-LACZ in Myoblasts, value relative to DMSO” value ([3]; 10 uM) was 0.9778, the “CMV-LACZ in Myoblasts, value relative to DMSO” value ([3]; 20 uM) was 1.0519 and the “CMV-LACZ in Myoblasts, value relative to DMSO” value ([3]; 40 uM) was 0.5959. The “CMV-LACZ in Myotubes, value relative to DMSO” value ([4]; 0.5 uM) was 0.9674, the “CMV-LACZ in Myotubes, value relative to DMSO” value ([4]; 1 uM) was 1.0126 and the “CMV-LACZ in Myotubes, value relative to DMSO” value ([4]; 5 uM) was 1.0327. The “CMV-LACZ in Myotubes, value relative to DMSO” value ([4]; 10 uM) was 1.0297, the “CMV-LACZ in Myotubes, value relative to DMSO” value ([4]; 20 uM) was 1.0224 and the “CMV-LACZ in Myotubes, value relative to DMSO” value ([4]; 40 uM) was 1.1212.

Source: patent US9980943B2, “Methods of treating muscular dystrophy” (BOARD OF REGENTS OF THE NEVADA SYSTEM OF HIGHER EDUCATION, …, priority 2013, dated 2018)
